According to patent US20080090916A1, “Compounds for Treating Urinary Incontinence” (priority 2005, published 2008):

Key:
[1] = test system: Female land race pigs; experiment: In vivo pig urodynamic model (urodynamic and cardiovascular parameters)
Procedure: The animal model employed in this study was a slight modification of the previously described pig in vivo urodynamic model by Mills (1999). Surgical procedures were performed by Home Office personal licence holders. Female land race pigs of about 60 kg in weight were used for this study.
Pigs were initially sedated with ketamine hydrochloride 15 mg/kg (ketaset, Willows Francis Veterinary, Crawley, UK) and midazolam 0.2 mg/kg (Hypnovel, Roche Products Ltd, Welwyn Garden City, UK) through an intravenous central line. […] The induction phase of general anaesthesia was accomplished with 5% halothane (Fluothane, Astra ZenecaLtd, Macclesfield UK) in nitrous oxide 50%/oxygen 50%, delivered from an anaesthetic machine through a conical mask which was held over the snout of the pig. Following the induction phase, the maintenance phase of general anaesthesia was achieved using intravenous 1% propofol at the rate of 200 mg/hr.
At the start of surgery, the pig was initially placed in the left lateral position allowing access to the lumbar dorsal region. A stab incision for each catheter was made in the lumbar dorsal midline, as well as a single small right iliac fossa incision. Using a specially designed trocar, the peritoneal catheter and the proximal portions of the vesical catheters were tunneled from the dorsal lumbar incision to the right iliac fossa, such that the cuff at the proximal end finished in a small subcutaneous pocket. Each incision was approximated with two interrupted 2/0 nylon sutures, taking care to avoid occlusion of the catheters. The pig was then turned into a supine position and a lower abdominal incision made. Using a Spencer-Well forceps, the peritoneum and abdominal wall muscles were pierced from inside out and three catheters grabbed and pulled into the peritoneal cavity. The longer peritoneal catheter was placed in the vesico-vaginal pouch. Two purse-string sutures of 2/0 silk were placed in the apex of the bladder, and stab incisions made through the centre of each of these. The distal shorter halves of the vesical lines were introduced into the bladder through these incisions and the purse-strings tied, ensuring that the lumen of each catheter remained patent. Each side of the small pieces of silastic sheet on these catheters was sutured to the serosa of the bladder, in order to provide further security against subsequent line displacement. These distal portions of the two vesical catheters were then connected to the proximal portions using the nylon connectors. The abdominal wound was closed en masse with 1 nylon, followed by 2/0 chromic catgut to fat and interrupted 2/0 nylon to the skin. The right iliac fossa wound was closed in layers with vicryl to internal oblique and external oblique and interrupted 2/0 nylon to the skin. One of the vesical lines was attached to another piece of tubing externally and left on free drainage for 48 hours to allow the bladder to heal.
Following induction of anaesthesia, the animal was placed in a supine position and covered with a warm water blanket to maintain body temperature. A small incision was then made in the left groin area through which the left femoral artery was identified by palpation. The artery was then cannulated with an arterial […] cannulae (Abbocath-T, Abbott Ireland, and Sligo, Ireland) which was then connected to a pressure transducer for the measurement of arterial pressure. Vesico-urethral junction cystometry was obtained using a catheter mounted with a microtranducer (Gaeltec LTD, Isle of Skye). To cannulate the urethra, the vagina was opened with a speculum to expose the external urethral orifice which is high up in the anterior wall of the vagina. Having identified the external orifice the catheter was then inserted into the urethra by direct vision, thereafter it was gradually withdrawn until it was positioned in the vesico-urethral junction. […]

[2] = Solubility concentration of saturated solutions determined by HPLC; format: physicochemical
Procedure: The tightness of the cells and absence of air bubbles in the receptor phase was monitored and given at each sampling point.
So, from manufacturing of the solutions, the amount of the compound of formula (Ia) per solvent volume was known (documentation by balance print out). That amount was named a saturated solution. Afterwards the saturated solution was centrifuged and the solubility concentration of the clear supernatant of the solution was determined quantitatively by HPLC. The saturation factor was calculated from the ratio of saturated solution:solubility concentration. A high ratio represented a high level of infinite dose.

[3] = 1 mg/kg iv bolus, mean of three voiding cycles

## COc1ccc(OC)c([C@@H](O)[C@H](C)NC(=O)CC[C@H](N)C(=O)O)c1 [compound of formula (Ia), (S)-2-Amino-4-[(1S,2R)-2-(2,5-dimethoxyphenyl)-2-hydroxy-1-methyl-ethylcarbamoyl]butyric acid]
[1]; 1 mg/kg iv
  VUJ threshold pressure, greater than control runs: about 31%
  duration of voiding, change from control: 4.1%
  fall in deutrusor voiding pressure from the control runs: 36.5%
  flow rate, change from control: 2.4%
  voiding intervals, change from control: −4.7%
[1]; [3]
  deutrusor voiding pressure: 28±10.11 cmH2O
  intravesical threshold voiding pressure: 16.23±1.16 cmH2O
  voiding pressure during the voiding phase: 41.1±8.3 cmH2O
[1]; 1 mg/kg iv bolus, mean of three voiding cycles, one animal
  bladder intravesical baseline pressure: 8.53±0.34 cmH2O
[1]; 1 mg/kg iv, versus control
  reduction in residual volume: 31%
  rise in the threshold VUJ voiding pressure: 15%
[1]; 1 mg/kg iv, versus control runs
  VUJ baseline pressure: transient rise
[1]; 1 mg/kg iv, arterial line flushed after dosing
  arterial pressure, change from the control: 15%
[1]; 1 mg/kg iv, voided volume as percentage of bladder capacity
  voiding efficiency: 95%
[2]; 0.9% NaCl 80%, PEG 400 20%, 0.1% NaN3
  saturation concentration in the acceptor medium: 130 mg/mL
[2]; Ethanol
  solubility in Ethanol: high solubility
[2]; water
  water solubility: high
[2]; water and DMSO
  solubility in both media: high solubility
